Numbers after ± are expanded uncertainties.
Tests used:
[1] = xn = mol fraction of the nth substance listed; details: 298.15 K, 101 kPa, Liquid; for viscosity: Capillary tube (Ostwald / Ubbelohde) method; for mass density: Pycnometric method
[2] = 298.15 K, 101 kPa, Liquid; for viscosity: Capillary tube (Ostwald / Ubbelohde) method; for mass density: Pycnometric method

CCCCCCCCCC [decane] + CCCCC(C)O
[1], x1 = 1
Details | mass density [kg/m3] | viscosity [mPa·s]
– | 726.35 ± 1 | 0.845 ± 0.032

CCCCCCCCCC [decane] + CCCCCCC(C)O
[1], x1 = 1
Details | mass density [kg/m3] | viscosity [mPa·s]
– | 726.35 ± 1 | 0.845 ± 0.032

CCCCCCCCCC [decane]
[2]
Details | mass density [kg/m3] | viscosity [mPa·s]
– | 726.35 ± 1 | 0.845 ± 0.032

CCCCCCC(C)O (centres undefined) [2-octanol]
[2]
Details | mass density [kg/m3] | viscosity [mPa·s]
– | 817.05 ± 1 | 6.429 ± 0.13

CCCCC(C)O (centres undefined) [2-hexanol]
[2]
Details | mass density [kg/m3] | viscosity [mPa·s]
– | 810.84 ± 1 | 4.105 ± 0.085

CCCCC(C)O (centres undefined) [2-hexanol] + CCCCCCCCCC
[1]
Details | mass density [kg/m3] | viscosity [mPa·s]
x2 = 0 | 810.84 ± 1 | 4.105 ± 0.085
x2 = 0.0555 | 802.94 ± 1 | 3.569 ± 0.074
x2 = 0.0999 | 797.23 ± 1 | 3.17 ± 0.066
x2 = 0.1554 | 790.5 ± 1 | 2.725 ± 0.057
x2 = 0.1998 | 785.43 ± 1 | 2.41 ± 0.05
x2 = 0.2556 | 779.42 ± 1 | 2.062 ± 0.043
x2 = 0.2999 | 774.91 ± 1 | 1.821 ± 0.038
x2 = 0.3555 | 769.55 ± 1 | 1.561 ± 0.033
x2 = 0.3998 | 765.52 ± 1 | 1.384 ± 0.033
x2 = 0.4554 | 760.72 ± 1 | 1.198 ± 0.033
x2 = 0.4998 | 757.1 ± 1 | 1.076 ± 0.032
x2 = 0.5554 | 752.79 ± 1 | 0.952 ± 0.032
x2 = 0.5997 | 749.54 ± 1 | 0.875 ± 0.032
x2 = 0.6555 | 745.66 ± 1 | 0.802 ± 0.032
x2 = 0.6999 | 742.72 ± 1 | 0.76 ± 0.032
x2 = 0.7555 | 739.25 ± 1 | 0.725 ± 0.032
x2 = 0.7998 | 736.62 ± 1 | 0.708 ± 0.032
x2 = 0.8555 | 733.48 ± 1 | 0.699 ± 0.032
x2 = 0.8999 | 731.11 ± 1 | 0.698 ± 0.032
x2 = 0.9555 | 728.29 ± 1 | 0.703 ± 0.032

CCCCCC(C)O (centres undefined) [2-heptanol]
[2]
Details | mass density [kg/m3] | viscosity [mPa·s]
– | 813.74 ± 1 | 5.08 ± 0.11

CCCCCCC(C)O (centres undefined) [2-octanol] + CCCCCCCCCC
[1]
Details | mass density [kg/m3] | viscosity [mPa·s]
x2 = 0 | 817.05 ± 1 | 6.429 ± 0.13
x2 = 0.0554 | 810.77 ± 1 | 5.222 ± 0.11
x2 = 0.0998 | 805.83 ± 1 | 4.638 ± 0.096
x2 = 0.1554 | 799.74 ± 1 | 3.972 ± 0.082
x2 = 0.1999 | 794.99 ± 1 | 3.491 ± 0.072
x2 = 0.2554 | 789.2 ± 1 | 2.951 ± 0.061
x2 = 0.2999 | 784.67 ± 1 | 2.564 ± 0.053
x2 = 0.3555 | 779.16 ± 1 | 2.136 ± 0.044
x2 = 0.3998 | 774.9 ± 1 | 1.836 ± 0.038
x2 = 0.4554 | 769.69 ± 1 | 1.509 ± 0.033
x2 = 0.4999 | 765.64 ± 1 | 1.284 ± 0.033
x2 = 0.5555 | 760.74 ± 1 | 1.046 ± 0.032
x2 = 0.5998 | 756.94 ± 1 | 0.889 ± 0.032
x2 = 0.6555 | 752.3 ± 1 | 0.73 ± 0.032
x2 = 0.7 | 748.7 ± 1 | 0.63 ± 0.032
x2 = 0.7554 | 744.32 ± 1 | 0.538 ± 0.032
x2 = 0.7998 | 740.91 ± 1 | 0.487 ± 0.032
x2 = 0.8554 | 736.74 ± 1 | 0.45 ± 0.032
x2 = 0.8999 | 733.47 ± 1 | 0.438 ± 0.032
x2 = 0.9554 | 729.48 ± 1 | 0.445 ± 0.032

CCCCCCCCCC [decane] + CCCCCC(C)O
[1], x1 = 1
Details | mass density [kg/m3] | viscosity [mPa·s]
– | 726.35 ± 1 | 0.845 ± 0.032

CCCCCC(C)O (centres undefined) [2-heptanol] + CCCCCCCCCC
[1]
Details | mass density [kg/m3] | viscosity [mPa·s]
x2 = 0 | 813.74 ± 1 | 5.08 ± 0.11
x2 = 0.0552 | 806.87 ± 1 | 4.25 ± 0.089
x2 = 0.0999 | 801.55 ± 1 | 3.732 ± 0.078
x2 = 0.1555 | 795.15 ± 1 | 3.152 ± 0.066
x2 = 0.1999 | 790.26 ± 1 | 2.74 ± 0.057
x2 = 0.2554 | 784.36 ± 1 | 2.283 ± 0.048
x2 = 0.2999 | 779.83 ± 1 | 1.962 ± 0.041
x2 = 0.3554 | 774.4 ± 1 | 1.614 ± 0.034
x2 = 0.3998 | 770.24 ± 1 | 1.375 ± 0.033
x2 = 0.4555 | 765.23 ± 1 | 1.122 ± 0.033
x2 = 0.4998 | 761.41 ± 1 | 0.954 ± 0.032
x2 = 0.5555 | 756.8 ± 1 | 0.782 ± 0.032
x2 = 0.5999 | 753.27 ± 1 | 0.673 ± 0.032
x2 = 0.6554 | 749.04 ± 1 | 0.57 ± 0.032
x2 = 0.6999 | 745.79 ± 1 | 0.51 ± 0.032
x2 = 0.7553 | 741.87 ± 1 | 0.461 ± 0.032
x2 = 0.8 | 738.84 ± 1 | 0.44 ± 0.032
x2 = 0.8555 | 735.2 ± 1 | 0.432 ± 0.032
x2 = 0.8998 | 732.39 ± 1 | 0.438 ± 0.032
x2 = 0.9553 | 728.98 ± 1 | 0.457 ± 0.032

— the NIST ThermoML archive (doi:10.1016/j.jct.2013.05.014)
